The results in this text go back to US20250129070A1, “BIFUNCTIONAL ANDROGEN RECEPTOR COMPOUNDS” (priority 2023, published 2025).

By IC50 is commonly meant the point on the concentration scale where inhibition reaches its midpoint. The low end stands for greater potency in that assay, the high end for weaker potency in that assay. As a reminder, the EC50 is the concentration needed to bring the measured effect to its halfway point. Higher therefore signals a less potent agent.

One assay relates to VCaP cells. The assay can be described thus: VCaP growth inhibition assay. The class given is cell-based. The note with it: 30 pM R1881, 9 days, CTG. In outline:
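VCaP cells in phenol red-free DMEM/5% CSS, pre-incubated 72 h, then stimulated with R1881 (final 30 pM) and treated with 1:5 serial dilutions (final 100 nM to 10 fM) for 9 days at 37 °C. Viability by CellTiter-Glo luminescence; IC50 from 4-parameter logistic fit of RLU vs concentration.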

In a further assay the test system is AR / CBP ternary complex. The assay can be described thus: Ternary complex formation assay (sandwich ELISA, AR capture / CBP detection) in VCaP cell lysates. It counts as cell-based. The following applies: 1.5 hours treatment, sandwich ELISA (AR capture, CBP or p300 detection). The method, boiled down: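 VCaP cells (50K/well, 5% charcoal-stripped FBS, ≥3 days) treated with bifunctional compound for 1.5 h, then lysed 30 min at 4 °C. AR captured on anti-AR (AR 441) plates; bound CBP or p300 detected by rabbit mAb plus HRP secondary. QuantaRed chemifluorescence read at ex 570/em 585, immediately and at 5 and 15 min.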
A general note: An ELISA detects its analyte on a solid surface through an enzyme-linked reagent.

Some results are limits rather than exact numbers.

The compound `CC(=O)N1CCc2c(c(N3CCCc4cc(-c5cnn(C)c5)c(C)cc43)nn2C2CCN(C(=O)C3CCN(c4ncc(C(=O)NC5C(C)(C)C(Oc6ccc(C#N)c(Cl)c6)C5(C)C)cn4)CC3)CC2)C1` (stereo not shown) [Compound 120, 2-[4-[4-[5-acetyl-3-[7-methyl-6-(1-methylpyrazol-4-yl)-3,4-dihydro-2H-quinolin-1-yl]-6,7-dihydro-4H-pyrazolo[4,3-c]pyridin-1-yl]piperidine-1-carbonyl]-1-piperidyl]-N-[3-(3-chloro-4-cyano-phenoxy)-2,2,4,4-tetramethyl-cyclobutyl]pyrimidine-5-carboxamide] came in with an IC50 with VCaP cells of no more than 0.1 nM. Moreover, in the assay on AR / CBP ternary complex, the EC50 was less than 1 nM.
In the same order, the values of `CC(=O)N1CCc2c(c(N3CCCc4cc(-c5cnn(C)c5)c(C(F)F)cc43)nn2C2CCN(CC#Cc3ncc(C(=O)NC4C(C)(C)C(Oc5ccc(C#N)c(Cl)c5)C4(C)C)cn3)CC2)C1` (stereo not shown) [Compound 19, 2-[3-[4-[5-acetyl-3-[7-(difluoromethyl)-6-(1-methylpyrazol-4-yl)-3,4-dihydro-2H-quinolin-1-yl]-6,7-dihydro-4H-pyrazolo[4,3-c]pyridin-1-yl]-1-piperidyl]prop-1-ynyl]-N-[3-(3-chloro-4-cyano-phenoxy)-2,2,4,4-tetramethyl-cyclobutyl]pyrimidine-5-carboxamide] are 0.1 to 1 nM and less than 1 nM.
In the same order, the values of `Cn1c(=O)sc2ccc(-c3cccc4cc(-c5ccc(CCC6CCN(c7ncc(C(=O)NC8C(C)(C)C(Oc9ccc(C#N)c(Cl)c9)C8(C)C)cn7)CC6)nc5)ncc34)cc21` (stereo not shown) [Compound 235, N-[3-(3-chloro-4-cyano-phenoxy)-2,2,4,4-tetramethyl-cyclobutyl]-2-[4-[2-[5-[8-(3-methyl-2-oxo-1,3-benzothiazol-5-yl)-3-isoquinolyl]-2-pyridyl]ethyl]-1-piperidyl]pyrimidine-5-carboxamide] are greater than 100 nM and less than 1 nM.
For `CC(=O)N1CCc2c(c(N3CCCc4ccc(C(F)F)cc43)nn2C2CCN(CC3CCN(c4ncc(C(=O)NC5C(C)(C)C(Oc6ccc(C#N)c(Cl)c6)C5(C)C)cn4)CC3)CC2)C1` (stereo not shown) [Compound 150, 2-[4-[[4-[5-acetyl-3-[7-(difluoromethyl)-3,4-dihydro-2H-quinolin-1-yl]-6,7-dihydro-4H-pyrazolo[4,3-c]pyridin-1-yl]-1-piperidyl]methyl]-1-piperidyl]-N-[3-(3-chloro-4-cyano-phenoxy)-2,2,4,4-tetramethyl-cyclobutyl]pyrimidine-5-carboxamide], in the assay with VCaP cells, the IC50 was no more than 0.1 nM. In the assay on AR / CBP ternary complex, this compound showed an EC50 of 1 to 10 nM.
In turn, `CC(=O)N1CCc2c(c(N3CCCc4cc(-c5cnn(C)c5)c(C(F)F)cc43)nn2C2CCN(CC3C(C)CN(c4ncc(C(=O)NC5C(C)(C)C(Oc6ccc(C#N)c(Cl)c6C)C5(C)C)cn4)CC3C)CC2)C1` (stereo not shown) [Compound 460, 2-[4-[[4-[5-acetyl-3-[7-(difluoromethyl)-6-(1-methylpyrazol-4-yl)-3,4-dihydro-2H-quinolin-1-yl]-6,7-dihydro-4H-pyrazolo[4,3-c]pyridin-1-yl]-1-piperidyl]methyl]-3,5-dimethyl-1-piperidyl]-N-[3-(3-chloro-4-cyano-2-methyl-phenoxy)-2,2,4,4-tetramethyl-cyclobutyl]pyrimidine-5-carboxamide] displayed an IC50 with VCaP cells of no more than 0.1 nM. For the same compound, the EC50 with AR / CBP ternary complex was less than 1 nM.
On the same counts, the results for `CC(=O)N1CCc2c(c(N3CCCc4cc(C#N)c(C(F)F)cc43)nn2C2CCN(CC3CCN(c4ncc(C(=O)NC5C(C)(C)C(Oc6ccc(C#N)c(Cl)c6)C5(C)C)cn4)CC3(C)C)CC2)C1` (stereo not shown) [Compound 450, 2-[4-[[4-[5-acetyl-3-[6-cyano-7-(difluoromethyl)-3,4-dihydro-2H-quinolin-1-yl]-6,7-dihydro-4H-pyrazolo[4,3-c]pyridin-1-yl]-1-piperidyl]methyl]-3,3-dimethyl-1-piperidyl]-N-[3-(3-chloro-4-cyano-phenoxy)-2,2,4,4-tetramethyl-cyclobutyl]pyrimidine-5-carboxamide] are 0.1 to 1 nM and less than 1 nM.
On the same counts, the results for `CC(=O)N1CCc2c(c(N3CCCc4cc(-c5cnn(C)c5)c(C(F)F)cc43)nn2C2CCC(OC3CCN(c4ncc(C(=O)NC5C(C)(C)C(Oc6ccc(C#N)c(Cl)c6)C5(C)C)cn4)CC3)CC2)C1` (stereo not shown) [Compound 339, 2-[4-[4-[5-acetyl-3-[7-(difluoromethyl)-6-(1-methylpyrazol-4-yl)-3,4-dihydro-2H-quinolin-1-yl]-6,7-dihydro-4H-pyrazolo[4,3-c]pyridin-1-yl]cyclohexoxy]-1-piperidyl]-N-[3-(3-chloro-4-cyano-phenoxy)-2,2,4,4-tetramethyl-cyclobutyl]pyrimidine-5-carboxamide] are no more than 0.1 nM and less than 1 nM.
On the same counts, the results for `CC(=O)N1CCc2c(c(N3CCCc4cc(-c5cnn(C)c5)c(C(F)F)cc43)nn2CCOC2CCN(c3ncc(C(=O)NC4C(C)(C)C(Oc5ccc(C#N)c(Cl)c5)C4(C)C)cn3)CC2)C1` (stereo not shown) [Compound 51, 2-[4-[2-[5-acetyl-3-[7-(difluoromethyl)-6-(1-methylpyrazol-4-yl)-3,4-dihydro-2H-quinolin-1-yl]-6,7-dihydro-4H-pyrazolo[4,3-c]pyridin-1-yl]ethoxy]-1-piperidyl]-N-[3-(3-chloro-4-cyano-phenoxy)-2,2,4,4-tetramethyl-cyclobutyl]pyrimidine-5-carboxamide] are 0.1 to 1 nM and less than 1 nM.
Regarding `COc1cc(OC2C(C)(C)C(NC(=O)c3ccc(C#CC4CC(N5CCC(n6nc(N7CCCc8cc(-c9cnn(C)c9)c(C(F)F)cc87)c7c6CCN(C(C)=O)C7)CC5)C4)cc3)C2(C)C)ccc1C#N` (stereo not shown) [Compound 294, 4-[2-[3-[4-[5-acetyl-3-[7-(difluoromethyl)-6-(1-methylpyrazol-4-yl)-3,4-dihydro-2H-quinolin-1-yl]-6,7-dihydro-4H-pyrazolo[4,3-c]pyridin-1-yl]-1-piperidyl]cyclobutyl]ethynyl]-N-[3-(4-cyano-3-methoxy-phenoxy)-2,2,4,4-tetramethyl-cyclobutyl]benzamide], in the assay with VCaP cells, the IC50 lay in the range of 0.1 to 1 nM. In the assay on AR / CBP ternary complex, this compound gave an EC50 of less than 1 nM.
In the same order, the values of `COc1cc(OC2C(C)(C)C(NC(=O)c3ccc(N4CC5(CCN(C6CCC(n7nc(N8CCCc9cc(-c%10cnn(C)c%10)c(C(F)F)cc98)c8c7CCN(C(C)=O)C8)CC6)CC5)C4)cc3)C2(C)C)ccc1C#N` (stereo not shown) [Compound 288, 4-[7-[4-[5-acetyl-3-[7-(difluoromethyl)-6-(1-methylpyrazol-4-yl)-3,4-dihydro-2H-quinolin-1-yl]-6,7-dihydro-4H-pyrazolo[4,3-c]pyridin-1-yl]cyclohexyl]-2,7-diazaspiro[3.5]nonan-2-yl]-N-[3-(4-cyano-3-methoxy-phenoxy)-2,2,4,4-tetramethyl-cyclobutyl]benzamide] are no more than 0.1 nM and less than 1 nM.
In the same order, the values of `CC(=O)N1CCc2c(c(N3CCCc4cc(-c5cnn(C)c5)c(C(F)F)cc43)nn2C2CCN(CCOc3ncc(C(=O)NC4C(C)(C)C(Oc5ccc(C#N)c(Cl)c5)C4(C)C)cn3)CC2)C1` (stereo not shown) [Compound 89, 2-[2-[4-[5-acetyl-3-[7-(difluoromethyl)-6-(1-methylpyrazol-4-yl)-3,4-dihydro-2H-quinolin-1-yl]-6,7-dihydro-4H-pyrazolo[4,3-c]pyridin-1-yl]-1-piperidyl]ethoxy]-N-[3-(3-chloro-4-cyano-phenoxy)-2,2,4,4-tetramethyl-cyclobutyl]pyrimidine-5-carboxamide] are 0.1 to 1 nM and less than 1 nM.
On the same counts, the results for `CC(=O)N1CCc2c(c(-c3cccc4cc(-c5cnn(C)c5)ncc34)nn2C2CCN(CC3CCN(c4ncc(C(=O)NC5C(C)(C)C(Oc6ccc(C#N)c(Cl)c6)C5(C)C)cn4)CC3)CC2)C1` (stereo not shown) [Compound 136, 2-[4-[[4-[5-acetyl-3-[3-(1-methylpyrazol-4-yl)-8-isoquinolyl]-6,7-dihydro-4H-pyrazolo[4,3-c]pyridin-1-yl]-1-piperidyl]methyl]-1-piperidyl]-N-[3-(3-chloro-4-cyano-phenoxy)-2,2,4,4-tetramethyl-cyclobutyl]pyrimidine-5-carboxamide] are no more than 0.1 nM and less than 1 nM.
For `CC(=O)N1CCc2c(c(Nc3ccc(-c4cnn(C)c4)cc3F)nn2C2CCN(CC3CCN(c4ncc(C(=O)NC5C(C)(C)C(Oc6ccc(C#N)c(Cl)c6)C5(C)C)cn4)CC3)CC2)C1` (stereo not shown) [Compound 186, 2-[4-[[4-[5-acetyl-3-[2-fluoro-4-(1-methylpyrazol-4-yl)anilino]-6,7-dihydro-4H-pyrazolo[4,3-c]pyridin-1-yl]-1-piperidyl]methyl]-1-piperidyl]-N-[3-(3-chloro-4-cyano-phenoxy)-2,2,4,4-tetramethyl-cyclobutyl]pyrimidine-5-carboxamide], in the assay on VCaP cells, the IC50 lay within 0.1 to 1 nM. Also, in the assay on AR / CBP ternary complex, the EC50 is less than 1 nM.
On the same counts, the results for `COc1cc(OC2C(C)(C)C(NC(=O)c3ccc(N4CCC(CCn5cc(-c6cc7cccc(-c8nn(C9CCOCC9)c9c8CN(C(C)=O)CC9)c7cn6)cn5)CC4)cc3)C2(C)C)ccc1C#N` (stereo not shown) [Compound 244, 4-[4-[2-[4-[8-(5-acetyl-1-tetrahydropyran-4-yl-6,7-dihydro-4H-pyrazolo[4,3-c]pyridin-3-yl)-3-isoquinolyl]pyrazol-1-yl]ethyl]-1-piperidyl]-N-[3-(4-cyano-3-methoxy-phenoxy)-2,2,4,4-tetramethyl-cyclobutyl]benzamide] are 0.1 to 1 nM and 1 to 10 nM.
